From ChEMBL document CHEMBL3991941, “GLEPP-1 inhibitors in the treatment of autoimmune and/or inflammatory disorders” (2011)
Calls of active or inactive are those of the source. The rule behind the calls is not given here.

Key:
Mus musculus [1] = assay: Antiinflammatory activity in C3H mouse model of thioglycollate-induced lymphocyte recruitment assessed as decrease in blood neutrophils at 30 mg/kg, po dosed 15 mins before thioglycollate stimulation by Beckman Coulter counting based cell counting method relative to untreated control; assay type: functional; parameters: scale not given: the % may be the effect or the level left
Mus musculus [2] = assay: Antiinflammatory activity in C3H mouse model of thioglycollate-induced lymphocyte recruitment assessed as decrease in blood lymphocytes at 30 mg/kg, po dosed 15 mins before thioglycollate stimulation by Beckman Coulter counting based cell counting method relative to untreated control; assay type: functional; parameters: scale not given: the % may be the effect or the level left
Mus musculus [3] = assay: Antiinflammatory activity in C3H mouse model of thioglycollate-induced lymphocyte recruitment assessed as decrease in blood macrophages at 30 mg/kg, po dosed 15 mins before thioglycollate stimulation by Beckman Coulter counting based cell counting method relative to untreated control; assay type: functional; parameters: scale not given: the % may be the effect or the level left
Mus musculus [4] = assay: Reduction in colon weight in Balb/c mouse model of dextran sodium sulfate-induced ulcerative colitis at 10 mg/kg, po dosed twice daily at days 3,4, 5 and 6 after the induction of the ulcerative colitis and measured 7 days post ulcerative colitis induction; assay type: functional; parameters: scale not given: the % may be the effect or the level left
Mus musculus [5] = assay: Reduction in colon weight in Balb/c mouse model of dextran sodium sulfate-induced ulcerative colitis at 30 mg/kg, po dosed twice daily at days 3,4, 5 and 6 after the induction of the ulcerative colitis and measured 7 days post ulcerative colitis induction; assay type: functional; parameters: scale not given: the % may be the effect or the level left
Mus musculus [6] = assay: Reduction in colon weight in Balb/c mouse model of dextran sodium sulfate-induced ulcerative colitis at 100 mg/kg, po dosed twice daily at days 3,4, 5 and 6 after the induction of the ulcerative colitis and measured 7 days post ulcerative colitis induction; assay type: functional; parameters: scale not given: the % may be the effect or the level left
Mus musculus [7] = assay: Reduction in splenomegaly in Balb/c mouse model of dextran sodium sulfate-induced ulcerative colitis at 30 mg/kg, po dosed twice daily at days 3,4, 5 and 6 after the induction of the ulcerative colitis and measured 7 days post ulcerative colitis induction; assay type: functional; parameters: scale not given: the % may be the effect or the level left
Mus musculus [8] = assay: Reduction in splenomegaly in Balb/c mouse model of dextran sodium sulfate-induced ulcerative colitis at 100 mg/kg, po dosed twice daily at days 3,4, 5 and 6 after the induction of the ulcerative colitis and measured 7 days post ulcerative colitis induction; assay type: functional; parameters: scale not given: the % may be the effect or the level left
Mus musculus [9] = assay: Reduction in body weight loss in Balb/c mouse model of dextran sodium sulfate-induced ulcerative colitis at 10 to 100 mg/kg, po dosed twice daily at days 3,4, 5 and 6 after the induction of the ulcerative colitis and measured 7 days post ulcerative colitis induction; assay type: functional, organism-based

| SMILES | Activity (Mus musculus [1]) [%] | Activity (Mus musculus [2]) [%] | Activity (Mus musculus [3]) [%] | Activity (Mus musculus [4]) [%] | Activity (Mus musculus [5]) [%] | Activity (Mus musculus [6]) [%] | Activity (Mus musculus [7]) [%] | Activity (Mus musculus [8]) [%] | Activity (Mus musculus [9]) |
| --- | --- | --- | --- | --- | --- | --- | --- | --- | --- |
| CCCCCCN(Cc1ccc(C#Cc2ccc(CCCC)cc2)cc1)c1ccc(O)c(C(=O)O)c1 | 44 | 47 | 50 | -22 | -28 | -35 | -31 | -65 | – |
| CCCCCCN(Cc1ccc(C#Cc2ccc(CCC)cc2)cc1)c1ccc(F)c(C(=O)O)c1 | -6 | 4 | 26 | – | – | – | – | – | – |
| CCCCCCN(Cc1ccccc1C#Cc1ccc(CCCC)cc1)C(=O)c1ccc(O)c(C(=O)O)c1 | – | – | – | -47 | -50 | – | -25 | -45 | Active |
| CCCCCCc1ccc(C#Cc2ccc(CN(C(=O)C(=O)O)C(C)(C)c3cccc(Cl)c3)cc2)cc1 | 25 | 39 | 52 | – | – | – | – | – | – |
| CCCCCCN(Cc1ccc(F)c(C(=O)O)c1)c1ccc(C#Cc2ccc(CCCC)cc2)cc1 | 28 | 8 | 32 | – | – | – | – | – | – |
| CCCCc1ccc(C#Cc2ccc(CN(CC3CCCC3)c3ccc(F)c(C(=O)O)c3)cc2)cc1 | 36 | 23 | 37 | – | – | – | – | – | – |
| CCCCCCN(Cc1ccc(C#Cc2ccc(CCCC)cc2)cc1)c1ccc(C(=O)O)c(O)c1 | 45 | 23 | 65 | – | – | – | – | – | – |
| CCCCCCN(Cc1ccc(C#Cc2ccc(CCCC)cc2)cc1)C(=O)c1ccc(O)c(C(=O)O)c1 | 41 | 41 | 62 | – | – | – | – | – | – |
| CCCCCCc1ccc(C#Cc2ccc(N(Cc3ccc(C(F)(F)F)cc3)C(=O)C(=O)O)cc2)cc1 | 15 | 21 | 32 | – | – | – | – | – | – |
| CCCCCCc1ccc(C#Cc2ccc(CN(Cc3ccc(C(F)(F)F)cc3)C(=O)C(=O)O)cc2)cc1 | 27 | 29 | 27 | – | – | – | – | – | – |
| CCCCCCN(Cc1ccc(C#Cc2ccc(C(C)(C)C)cc2)cc1)c1ccc(F)c(C(=O)O)c1 | 36 | 13 | 42 | – | – | – | – | – | – |
| O=C(O)C(=O)N(Cc1ccc(C#CCCCCCCCCCF)cc1)Cc1ccc(C(F)(F)F)cc1 | 16 | 24 | 36 | – | – | – | – | – | – |
